Data taken from PubChem BioAssay (NCI).
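Method: 48-hour compound exposure of cells in 96-well plates, five concentrations, linear interpolation of endpoints. GI50 marks 50% less growth. TGI marks complete inhibition of growth.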

How the values were obtained:
Assay in all cases: growth of human tumour cells (NCI), 48 h
[1] = test system: RPMI-8226 leukemia
[2] = test system: HS 578T breast
[3] = test system: DU-145 prostate
[4] = test system: A549 NSCLC
[5] = test system: COLO 205 colon
[6] = test system: NCI-H460 lung
[7] = test system: SW-620 colon
[8] = test system: EKVX NSCLC
[9] = test system: SK-MEL-2 melanoma
[10] = test system: HOP-92 NSCLC
[11] = test system: NCI-H23 lung
[12] = test system: SF-539 CNS
[13] = test system: SK-MEL-28 melanoma
[14] = test system: CAKI-1 renal
[15] = test system: TK-10 renal
[16] = test system: T-47D breast
[17] = test system: SF-268 CNS
[18] = test system: HOP-62 NSCLC
[19] = test system: HCC-2998 colon
[20] = test system: SNB-75 CNS
[21] = test system: HCT-15 colon
[22] = test system: M14 melanoma
[23] = test system: LOX IMVI melanoma
[24] = test system: 786-0 renal
[25] = test system: A498 renal
[26] = test system: MDA-MB-231 breast
[27] = test system: MOLT-4 leukemia
[28] = test system: SR leukemia
[29] = test system: OVCAR-5 ovarian
[30] = test system: NCI-H522 lung
[31] = test system: SNB-19 CNS
[32] = test system: BT-549 breast
[33] = test system: OVCAR-3 ovarian
[34] = test system: UO-31 renal
[35] = test system: HCT-116 colon
[36] = test system: NCI/ADR-RES ovarian
[37] = test system: HT29 colon
[38] = test system: SN12C renal
[39] = test system: OVCAR-8 ovarian
[40] = test system: SK-OV-3 ovarian
[41] = test system: UACC-62 melanoma
[42] = test system: MCF7 breast
[43] = test system: PC-3 prostate
[44] = test system: U251 CNS
[45] = test system: ACHN renal
[46] = test system: MALME-3M melanoma
[47] = test system: UACC-257 melanoma
[48] = test system: OVCAR-4 ovarian
[49] = test system: RXF 393 renal
[50] = test system: SF-295 CNS
[51] = test system: NCI-H226 lung
[52] = test system: KM12 colon
[53] = test system: SK-MEL-5 melanoma
[54] = test system: MDA-MB-435
[55] = test system: HL-60(TB) leukemia
[56] = test system: CCRF-CEM leukemia
[57] = test system: K-562 leukemia

Work on `CCCCCCN(CCCCCC)CC(O)c1ccc2c3c(cccc13)CC2` (stereo not drawn) yielded a GI50 [1] of 3.02 µM, a TGI [1] of 9.83 µM and a GI50 [2] of 10.8 µM. For the same compound, the TGI [2] was 27.2 µM, the GI50 [3] was 11.6 µM and the TGI [3] was 24.7 µM. It also gave a GI50 [4] of 10.4 µM, a TGI [4] of 24 µM and a GI50 [5] of 5.56 µM. The TGI [5] was 19.8 µM, the GI50 [6] was 3.36 µM and the TGI [6] was 17 µM. For the same compound, the GI50 [7] was 3.17 µM, the TGI [7] was 14.9 µM and the GI50 [8] was 6.64 µM. It also gave a TGI [8] of 23.1 µM, a GI50 [9] of 11 µM and a TGI [9] of 24.7 µM. For the same compound, the GI50 [10] was 2.16 µM, the TGI [10] was 9.27 µM and the GI50 [11] was 3.7 µM. It also gave a TGI [11] of 18.1 µM, a GI50 [12] of 3.83 µM and a TGI [12] of 15.2 µM. It also gave a GI50 [13] of 11.2 µM, a TGI [13] of 24.9 µM and a GI50 [14] of 1.96 µM. The TGI [14] was 9.35 µM, the GI50 [15] was 10.7 µM and the TGI [15] was 23.2 µM. The GI50 [16] was 3.28 µM, the TGI [16] was 16.6 µM and the GI50 [17] was 12 µM. It also gave a TGI [17] of 24.9 µM, a GI50 [18] of 12.1 µM and a TGI [18] of 24.7 µM. For the same compound, the GI50 [19] was 3.07 µM, the TGI [19] was 9.67 µM and the GI50 [20] was 13.6 µM. It also gave a TGI [20] of 27.1 µM, a GI50 [21] of 6.63 µM and a TGI [21] of 25.1 µM. The GI50 [22] was 3.95 µM, the TGI [22] was 17 µM and the GI50 [23] was 3.42 µM. The TGI [23] was 14.6 µM, the GI50 [24] was 6.15 µM and the TGI [24] was 20.2 µM. It also gave a GI50 [25] of 2.31 µM, a TGI [25] of 12 µM and a GI50 [26] of 6.86 µM. For the same compound, the TGI [26] was 21.3 µM, the GI50 [27] was 4.36 µM and the TGI [27] was 22.7 µM. The GI50 [28] was 3.32 µM, the TGI [28] was 13.8 µM and the GI50 [29] was 10.8 µM. For the same compound, the TGI [29] was 23.9 µM, the GI50 [30] was 3.14 µM and the TGI [30] was 13.2 µM. The GI50 [31] was 11.8 µM, the TGI [31] was 26.6 µM and the GI50 [32] was 13.5 µM. For the same compound, the TGI [32] was 28.1 µM, the GI50 [33] was 8.96 µM and the TGI [33] was 21.6 µM. For the same compound, the GI50 [34] was 3.09 µM, the TGI [34] was 17.3 µM and the GI50 [35] was 1.68 µM. It also gave a TGI [35] of 13.2 µM, a GI50 [36] of 10.6 µM and a TGI [36] of 26.2 µM. For the same compound, the GI50 [37] was 1.18 µM, the TGI [37] was 13.2 µM and the GI50 [38] was 7.04 µM. The TGI [38] was 22 µM, the GI50 [39] was 13.1 µM and the TGI [39] was 29.4 µM. The GI50 [40] was 14.1 µM, the TGI [40] was 27.6 µM and the GI50 [41] was 4.4 µM. The TGI [41] was 17.5 µM, the GI50 [42] was 6.01 µM and the TGI [42] was 20.8 µM. It also gave a GI50 [43] of 10.9 µM, a TGI [43] of 28.7 µM and a GI50 [44] of 7.44 µM. For the same compound, the TGI [44] was 22.4 µM, the GI50 [45] was 10 µM and the TGI [45] was 23.5 µM. The GI50 [46] was 14.1 µM, the TGI [46] was 32.1 µM and the GI50 [47] was 6.97 µM. The TGI [47] was 22.6 µM, the GI50 [48] was 10.3 µM and the TGI [48] was 36.8 µM. For the same compound, the GI50 [49] was 2.39 µM, the TGI [49] was 7.21 µM and the GI50 [50] was 1.17 µM. The TGI [50] was 12 µM, the GI50 [51] was 8.06 µM and the TGI [51] was 22.9 µM. The GI50 [52] was 5.3 µM, the TGI [52] was 18.9 µM and the GI50 [53] was 4.74 µM. For the same compound, the TGI [53] was 17.9 µM, the GI50 [54] was 3.11 µM and the TGI [54] was 15.2 µM. For the same compound, the GI50 [55] was 2.16 µM and the TGI [55] was 6.16 µM.
Compound `Nc1ccc2[nH]c(C(=O)N3CC(CCl)c4c3cc(N)c3ccccc43)cc2c1` (stereo not drawn) has a TGI [1] of less than 0.0255 µM, a TGI [2] of 0.057 µM and a TGI [3] of less than 0.01 µM. It also gave a TGI [5] of 0.0223 µM, a TGI [6] of less than 0.01 µM and a TGI [7] of 0.124 µM. The TGI [8] was 0.0313 µM, the TGI [11] was less than 0.01 µM and the TGI [56] was greater than 100 µM. It also gave a TGI [16] of 0.455 µM, a TGI [17] of less than 0.01 µM and a TGI [18] of 0.0556 µM. For the same compound, the TGI [19] was less than 0.01 µM, the TGI [21] was 1.28 µM and the TGI [23] was 0.0145 µM. The TGI [25] was 0.0288 µM, the TGI [29] was greater than 100 µM and the TGI [31] was less than 0.0489 µM. For the same compound, the TGI [32] was less than 0.0244 µM, the TGI [33] was greater than 100 µM and the TGI [35] was 1.09 µM. It also gave a TGI [36] of less than 0.01 µM, a TGI [57] greater than 100 µM and a TGI [37] of less than 0.0229 µM. The TGI [38] was 0.0325 µM, the TGI [39] was 0.0236 µM and the TGI [40] was 1.21 µM. It also gave a TGI [41] of 0.0101 µM, a TGI [42] of 0.153 µM and a TGI [44] of 0.147 µM. It also gave a TGI [45] of 0.0103 µM, a TGI [48] of less than 0.01 µM and a TGI [50] of less than 0.01 µM. The TGI [51] was less than 0.01 µM, the TGI [52] was 0.0714 µM and the TGI [53] was less than 0.0414 µM. The TGI [54] was 0.025 µM and the TGI [55] was 0.0162 µM.
